Read-outs that look alike come from different tables or passages of the source.
Key:
Echinochloa crus [1] = assay: Dry field farming herbicidal composition test, plant mortality; format: in vivo
From the text: (§1) X is % damage by uracil compound (a) of formula 1 at the rate of application of p kg/ha; Y is % damage by conventional herbicidal compound (b) at the rate of application of q kg/ha; and E is the expected damage caused by compounds (a) and (b) at a rate of application of p and q kg/ha.
(§2) The expected activity for a given combination of two herbicides can be calculated using equation 1 above.

Digitaria sanguinalis = assay: as above; format: in vivo
From the text: as §1, §2

Abutilon theophrasti = assay: as above; format: in vivo
From the text: as §1, §2

Aeschynomene indica = assay: as above; format: in vivo
From the text: as §1, §2

Monochoria vaginalis = assay: Paddy field farming herbicidal composition test, plant mortality; format: in vivo
From the text: as §1, §2

Echinochloa crus [2] = assay: as above; format: in vivo
From the text: as §1, §2

[3] = Echinochloa, read-out: Echinochloa crus mortality, measured value
[4] = Digitaria sanguinalis, read-out: Digitaria sanguinalis mortality, measured value
[5] = Abutilon theophrasti, read-out: Abutilon theophrasti mortality, measured value
[6] = Aeschynomene indica, read-out: Aeschynomene indica mortality, measured value
[7] = Pontederia vaginalis, read-out: Monochoria vaginalis mortality (measured value)

`CS(=O)(=O)c1ccc(C(=O)C2C(=O)CCCC2=O)c([N+](=O)[O-])c1` [Mesotrione] was tested, and the “Echinochloa crus mortality, measured value” (“Echinochloa crus mortality” for short) (Echinochloa crus [1]; 15 g/ha) was 0, the “Echinochloa crus mortality” value (Echinochloa crus [1]; 30 g/ha) was 5 and the “Echinochloa crus mortality” value (Echinochloa crus [1]; 60 g/ha) was 15. It also gave a pest or weed control at 15 g/ha (Echinochloa crus [1]; [3]) of 0%, a pest or weed control at 30 g/ha (Echinochloa crus [1]; [3]) of 5% and a pest or weed control at 60 g/ha (Echinochloa crus [1]; [3]) of 15%. For the same molecule, the “Digitaria sanguinalis mortality, measured value” (“Digitaria sanguinalis mortality” below) (Digitaria sanguinalis; 15 g/ha) was 0, the “Digitaria sanguinalis mortality” value (Digitaria sanguinalis; 30 g/ha) was 5 and the “Digitaria sanguinalis mortality” value (Digitaria sanguinalis; 60 g/ha) was 10. The pest or weed control at 15 g/ha (Digitaria sanguinalis; [4]) was 0%, the pest or weed control at 30 g/ha (Digitaria sanguinalis; [4]) was 5% and the pest or weed control at 60 g/ha (Digitaria sanguinalis; [4]) was 10%. The “Abutilon theophrasti mortality, measured value” (shortened to “Abutilon theophrasti mortality”) (Abutilon theophrasti; 15 g/ha) was 15, the “Abutilon theophrasti mortality” value (Abutilon theophrasti; 30 g/ha) was 29 and the “Abutilon theophrasti mortality” value (Abutilon theophrasti; 60 g/ha) was 58. The pest or weed control at 15 g/ha (Abutilon theophrasti; [5]) was 15%, the pest or weed control at 30 g/ha (Abutilon theophrasti; [5]) was 29% and the pest or weed control at 60 g/ha (Abutilon theophrasti; [5]) was 58%. The “Aeschynomene indica mortality, measured value” (shortened to “Aeschynomene indica mortality”) (Aeschynomene indica; 15 g/ha) was 11, the “Aeschynomene indica mortality” value (Aeschynomene indica; 30 g/ha) was 27 and the “Aeschynomene indica mortality” value (Aeschynomene indica; 60 g/ha) was 54. For the same molecule, the pest or weed control at 15 g/ha (Aeschynomene indica; [6]) was 11%, the pest or weed control at 30 g/ha (Aeschynomene indica; [6]) was 27% and the pest or weed control at 60 g/ha (Aeschynomene indica; [6]) was 54%. For the same molecule, the “Corn mortality (measured value)” value (corn; 15 g/ha) was 0, the “Corn mortality, measured value” (corn; 15 g/ha) was 0 and the “Corn mortality (measured value)” value (corn; 30 g/ha) was 0. The “Corn mortality, measured value” (corn; 30 g/ha) was 0, the “Corn mortality (measured value)” value (corn; 60 g/ha) was 1 and the “Corn mortality, measured value” (corn; 60 g/ha) was 1.
`COc1cc(OC)nc(NC(=O)NS(=O)(=O)Nc2ccccc2C(=O)N(C)C)n1` [Orthosulfamuron] was tested, and the “Monochoria vaginalis mortality (measured value)” value (Monochoria vaginalis; 17.5 g/ha) was 40 and the “Echinochloa crus mortality” value (Echinochloa crus [2]; 17.5 g/ha) was 10.
Molecule `COP(=S)(OC)SCC(=O)N(c1ccc(Cl)cc1)C(C)(C)C` [Anilofos] has a pest or weed control at 75 g/ha (Monochoria vaginalis; [7]) of 0% and a pest or weed control at 75 g/ha (Echinochloa crus [2]; [3]) of 50%.
`COc1ncc(F)c2nc(S(=O)(=O)Nc3c(F)cccc3F)nn12` [Florasulam] gave an Echinochloa crus mortality, measured value (Echinochloa crus [1]; 1 g/ha) of 0%, an Echinochloa crus mortality, measured value (Echinochloa crus [1]; 2 g/ha) of 0% and an Echinochloa crus mortality, measured value (Echinochloa crus [1]; 4 g/ha) of 0%. For the same molecule, the Digitaria sanguinalis mortality, measured value (Digitaria sanguinalis; 1 g/ha) was 0%, the Digitaria sanguinalis mortality, measured value (Digitaria sanguinalis; 2 g/ha) was 0% and the Digitaria sanguinalis mortality, measured value (Digitaria sanguinalis; 4 g/ha) was 0%. The “Abutilon theophrasti mortality” value (Abutilon theophrasti; 1 g/ha) was 12, the “Abutilon theophrasti mortality” value (Abutilon theophrasti; 2 g/ha) was 23 and the “Abutilon theophrasti mortality” value (Abutilon theophrasti; 4 g/ha) was 54. For the same molecule, the Aeschynomene indica mortality, measured value (Aeschynomene indica; 1 g/ha) was 8%, the Aeschynomene indica mortality, measured value (Aeschynomene indica; 2 g/ha) was 18% and the Aeschynomene indica mortality, measured value (Aeschynomene indica; 4 g/ha) was 46%. For the same molecule, the “Corn mortality, measured value” (corn; 1 g/ha) was 0, the “Corn mortality, measured value” (corn; 2 g/ha) was 0 and the “Corn mortality, measured value” (corn; 4 g/ha) was 0.
For `COc1cc(OC)nc(NC(=O)NS(=O)(=O)c2ncccc2C(=O)N(C)C)n1` [Nicosulfuron], the pest or weed control at 5 g/ha (Echinochloa crus [1]; [3]) was 10%, the pest or weed control at 10 g/ha (Echinochloa crus [1]; [3]) was 24% and the pest or weed control at 20 g/ha (Echinochloa crus [1]; [3]) was 50%. For the same molecule, the pest or weed control at 5 g/ha (Digitaria sanguinalis; [4]) was 7%, the pest or weed control at 10 g/ha (Digitaria sanguinalis; [4]) was 24% and the pest or weed control at 20 g/ha (Digitaria sanguinalis; [4]) was 50%. The pest or weed control at 5 g/ha (Abutilon theophrasti; [5]) was 8%, the pest or weed control at 10 g/ha (Abutilon theophrasti; [5]) was 26% and the pest or weed control at 20 g/ha (Abutilon theophrasti; [5]) was 62%. For the same molecule, the pest or weed control at 5 g/ha (Aeschynomene indica; [6]) was 11%, the pest or weed control at 10 g/ha (Aeschynomene indica; [6]) was 30% and the pest or weed control at 20 g/ha (Aeschynomene indica; [6]) was 65%. For the same molecule, the “Corn mortality, measured value” (corn; 5 g/ha) was 0, the “Corn mortality, measured value” (corn; 10 g/ha) was 0 and the “Corn mortality, measured value” (corn; 20 g/ha) was 0.
With `CN(C(=O)COc1nc2ccccc2s1)c1ccccc1` [Mefenacet] the pest or weed control at 200 g/ha (Monochoria vaginalis; [7]) was 30% and the pest or weed control at 200 g/ha (Echinochloa crus [2]; [3]) was 30%.
Molecule `CS(=O)(=O)c1cc(C(F)(F)F)ccc1C(=O)c1cnoc1C1CC1` [Isoxaflutole] has a pest or weed control at 12.5 g/ha (Echinochloa crus [1]; [3]) of 14%, a pest or weed control at 25 g/ha (Echinochloa crus [1]; [3]) of 29% and a pest or weed control at 50 g/ha (Echinochloa crus [1]; [3]) of 61%. It also gave a pest or weed control at 12.5 g/ha (Digitaria sanguinalis; [4]) of 10%, a pest or weed control at 25 g/ha (Digitaria sanguinalis; [4]) of 24% and a pest or weed control at 50 g/ha (Digitaria sanguinalis; [4]) of 53%. It also gave a pest or weed control at 12.5 g/ha (Abutilon theophrasti; [5]) of 12%, a pest or weed control at 25 g/ha (Abutilon theophrasti; [5]) of 31% and a pest or weed control at 50 g/ha (Abutilon theophrasti; [5]) of 62%. For the same molecule, the pest or weed control at 12.5 g/ha (Aeschynomene indica; [6]) was 9%, the pest or weed control at 25 g/ha (Aeschynomene indica; [6]) was 28% and the pest or weed control at 50 g/ha (Aeschynomene indica; [6]) was 56%. For the same molecule, the “Corn mortality, measured value” (corn; 12.5 g/ha) was 0, the “Corn mortality, measured value” (corn; 25 g/ha) was 0 and the “Corn mortality, measured value” (corn; 50 g/ha) was 0.
Work on `COc1nc(C)nc(NC(=O)NS(=O)(=O)c2cc(I)ccc2C(=O)O)n1` [Iodosulfuron] yielded a pest or weed control at 1.25 g/ha (Echinochloa crus [1]; [3]) of 7%, a pest or weed control at 5 g/ha (Echinochloa crus [1]; [3]) of 58% and a pest or weed control at 1.25 g/ha (Digitaria sanguinalis; [4]) of 12%. For the same molecule, the pest or weed control at 5 g/ha (Digitaria sanguinalis; [4]) was 56%, the pest or weed control at 1.25 g/ha (Abutilon theophrasti; [5]) was 13% and the pest or weed control at 5 g/ha (Abutilon theophrasti; [5]) was 61%. The pest or weed control at 1.25 g/ha (Aeschynomene indica; [6]) was 12%, the pest or weed control at 5 g/ha (Aeschynomene indica; [6]) was 47% and the “Corn mortality, measured value” (corn; 1.25 g/ha) was 0. For the same molecule, the “Corn mortality, measured value” (corn; 5 g/ha) was 1.
`Cc1nn(-c2cc(NS(C)(=O)=O)c(Cl)cc2Cl)c(=O)n1C(F)F` [Sulfentrazone] was tested, and the pest or weed control at 75 g/ha (Echinochloa crus [1]; [3]) was 0%, the pest or weed control at 150 g/ha (Echinochloa crus [1]; [3]) was 5% and the pest or weed control at 300 g/ha (Echinochloa crus [1]; [3]) was 20%. For the same molecule, the pest or weed control at 75 g/ha (Digitaria sanguinalis; [4]) was 0%, the pest or weed control at 150 g/ha (Digitaria sanguinalis; [4]) was 10% and the pest or weed control at 300 g/ha (Digitaria sanguinalis; [4]) was 28%. It also gave a pest or weed control at 75 g/ha (Abutilon theophrasti; [5]) of 12%, a pest or weed control at 150 g/ha (Abutilon theophrasti; [5]) of 25% and a pest or weed control at 300 g/ha (Abutilon theophrasti; [5]) of 56%. The pest or weed control at 75 g/ha (Aeschynomene indica; [6]) was 7%, the pest or weed control at 150 g/ha (Aeschynomene indica; [6]) was 25% and the pest or weed control at 300 g/ha (Aeschynomene indica; [6]) was 53%. The “Corn mortality, measured value” (corn; 75 g/ha) was 0, the “Corn mortality, measured value” (corn; 150 g/ha) was 0 and the “Corn mortality, measured value” (corn; 300 g/ha) was 1.

Reference: US10206399B2, “Herbicidal composition comprising uracil compound as active ingredient” (Dongbu Farm Hannong Co., Ltd., priority 2012, dated 2019)
